Microsomal CLint and IC50 data for 20 molecules are collected here from patent US9834541B2, “2-aminopyridine compounds” (Merck Patent GmbH, priority 2012, dated 2017).

A word on the microsomal CLint: it is the rate of metabolic loss divided by the concentration. As usually defined, the IC50 is the midpoint of a concentration-inhibition curve. The low end stands for higher potency, the high end for lower potency.

Series [1] can be described thus: CLint (intrinsic clearance) assay, liver microsomal incubation. It is filed as in vitro ADME, human. Conditions: liver microsomes, pH 7.4; human hepatic microsomes, 0.5 mg/mL protein, class symbols. The method, then: Also shown is the human hepatic microsomal intrinsic clearance (CLint), whereby the following classification is used:
2. CLint (Intrinsic Clearance) Assay
A Tecan Genesis workstation (RWS ASY 150/8) was used to perform the microsomal incubations. Analysis was carried out using a Waters ACQUITY UPLC system coupled to an ABSciex API3000 mass spectrometer. Data analysis was performed using Assay Explorer (Symyx).
Column: Acquity UPLC BEH C18, 2.1×50 mm, 1.7 um (Waters)
Mobile phases: • A=0.1% formic acid in water • B=acetonitrile
Column temperature: 50° C.
0.1 M potassium phosphate buffer pH 7.4 containing 1 mM MgCl2
15 mM NADPH in phosphate buffer
5.0 mg protein/mL liver microsomes in phosphate buffer
Each experiment consists of 12 test and 2 reference compounds. The reference compounds are incubated as a cocktail.
Dilution of test compounds was done in 2 steps from a 10 mM DMSO stock solution. First 4 μL stock solution was added to 196 μL of 20% DMSO in potassium phosphate buffer pH 7.4. In a second step 10 μL of the first dilution were added to 1890 μL potassium phosphate buffer and 100 μL internal standard solution to a final concentration of […].
100 μL of the final compound dilution were aliquoted into a 96 deep well plate. 12.5 μL liver microsomes were added to each well (0.5 mg/mL final protein concentration) and the samples preincubated for 5 min at 37° C. and 800 rpm agitation.
After the preincubation, 250 μL cold acetonitrile were added to the 0 min samples to prevent a reaction. Following this, 12.5 μL NADPH solution were added to all wells to start the incubation, with the exception of the 0 min and 30 min controls without cofactor, where the NADPH was substituted for phosphate buffer.
The incubations were stopped after 5, 10, 20 and 30 min by adding 250 μL cold acetonitrile to the individual wells.
The quenched samples were then centrifuged at 4000 g for 1 h at 4° C. 100 μL of the supernatant were transferred into 96 well plates for analysis.
The metabolic stability of each compound was determined by measurement of the change in LC-MS/MS peak area over time. Assay Explorer software was used to automatically calculate the slope k of the decline. The intrinsic clearance (CLint) of each compound was then calculated according to the formula: CLint(μL/min/mg protein)=k1000/protein concentration.

The test system of a further series is Wnt pathway. Briefly: Cellular assay for Wnt pathway activity, LS174T-shl-fLuc clone 5 (LS174T-L5) luciferase reporter assay. The settings on record: Homo sapiens; LS174T TCF luciferase reporter cells, 24 hours incubation. It is filed as cell-based. The source says:
1. Cellular Assay for Wnt Pathway Activity LS174T-shl-fLuc Clone 5 (LS174T-L5) Reporter Assay Principle:
This assay is based on an in-vitro luciferase activity readout. The human colon cancer cell line, LS174T was transduced with a lentivirus encoding a short half-life luciferase (with a destabilised PEST sequence construct; construct F1756): 16×TCF/LEF transcription sites—short half life firefly luciferase on a basal pTA promoter—puromycin resistance gene on an EF-1-α promoter). This construct was made using the lentiviral base vector: pCDF1-MCS2-EF1-Puro from System Biosciences (cat. # CD110B-1). The luciferase has a T1/2 of about 60 minutes.
Stable luciferase-expressing clones were selected, using 1 μg/mL puromycin selection and the clones were bulked up.
Compounds that inhibit the Wnt pathway are predicted to inhibit the induction of luciferase transcription by TCF; this will result in reduced luciferase protein production and luciferase signal readout.
Compounds were tested for their Wnt pathway inhibitory activities using the described firefly luciferase reporter cell based assay. An LS174T luciferase reporter cell line was used which contained a T-Cell Factor (TCF) dependent gene promoter firefly luciferase construct.
Compounds, in concentrations from 30 μM to 1 nM, were incubated for 24 hours on the cells. Luciferase activities were determined using the Steady Glo Luciferase Assay System (Promega) and the TOPCOUNT microplate reader (Perkin Elmer). For analysis, the obtained data were normalized against the untreated vehicle control and fitted for determination of the IC50 values using the Excel Fit application of the Excel Software (Microsoft).
In general terms: In a reporter assay the amount or activity of a reporter protein is the signal.

`CN1C(=O)CCc2cc(-c3cnc(N)c(Cl)c3N3CCC4(CCNC4=O)CC3)ccc21` [Compound 14, 6-[6-Amino-5-chloro-4-(1-oxo-2,8-diaza-spiro[4.5]dec-8-yl)-pyridin-3-yl]-1-methyl-3,4-dihydro-1H-quinolin-2-one]: in series [1], the microsomal CLint at 0.8 μM fell in the range of 10 to 50 µL/min/mg. For the same molecule, the IC50 in the series on Wnt pathway was 40 nM.
`Nc1ncc(-c2ccc3cc[nH]c3c2)c(N2CCC3(CCNC3=O)CC2)c1Cl` [Compound 24, 8-[2-Amino-3-chloro-5-(1H-indol-6-yl)-pyridin-4-yl]-2,8-diaza-spiro[4.5] decan-1-one]: in series [1], the microsomal CLint at 0.8 μM is 100 to 150 µL/min/mg. The same molecule displayed an IC50 in the series with Wnt pathway of 18 nM.
Regarding `Cn1ncc2cc(-c3cnc(N)c(Cl)c3N3CCC4(CC3)CNC(=O)O4)ccc21` [Compound 21, 8-[2-Amino-3-chloro-5-(1-methyl-1H-indazol-5-yl)-pyridin-4-yl]-1-oxa-3,8-diaza-spiro[4.5] decan-2-one], the microsomal CLint at 0.8 μM in series [1] fell in the range of 10 to 50 µL/min/mg. Besides, the IC50 with Wnt pathway was found to be 110 nM.
Regarding `CN1c2ccc(-c3cnc(N)c(Cl)c3N3CCC4(CCNC4=O)CC3)cc2CS1(=O)=O` [Compound 26, 8-(2-Amino-3-chloro-5-(1-methyl-2,2-dioxido-1,3-dihydrobenzo[c]isothiazol-5-yl)pyridin-4-yl)-2,8-diazaspiro[4.5]decan-1-one], in series [1], the intrinsic clearance (microsomal CLint) at 0.8 μM lay in the range of 100 to 150 µL/min/mg. The molecule also came in with an IC50 with Wnt pathway of 6 nM.
The matching figures for `Nc1ncc(-c2ccc(-c3cnn(CCO)c3)cc2)c(N2CCC3(CC2)CNC(=O)O3)c1Cl` [Compound 34, 8-(2-Amino-3-chloro-5-{4-[1-(2-hydroxy-ethyl)-1H-pyrazol-4-yl]-phenyl}-pyridin-4-yl)-1-oxa-3,8-diaza-spiro[4.5] decan-2-one]: 10 to 50 µL/min/mg and 370 nM.
Taken in the same sequence, the figures for `Nc1ncc(-c2ccc3oc(=O)[nH]c3c2)c(N2CCC3(CC2)CNC(=O)O3)c1Cl` [Compound 9, 8-[2-Amino-3-chloro-5-(2-oxo-2,3-dihydro-benzooxazol-5-yl)-pyridin-4-yl]-1-oxa-3,8-diaza-spiro[4.5] decan-2-one] were 10 to 50 µL/min/mg and 98 nM.
Taken in the same sequence, the figures for `Nc1ncc(-c2ccc3c(N)n[nH]c3c2)c(N2CCC3(CCNC3=O)CC2)c1C(F)(F)F` [Compound 44, 8-[2-Amino-5-(3-amino-1H-indazol-6-yl)-3-trifluoro-methyl-pyridin-4-yl]-2,8-diaza-spiro[4.5] decan-1-one] were 10 to 50 µL/min/mg and 270 nM.
For the molecule `CN1c2ccc(-c3cnc(N)c(Cl)c3N3CCC4(CC3)NCCNC4=O)cc2CS1(=O)=O` [Compound 46, 9-[2-Amino-3-chloro-5-(1-methyl-2,2-dioxo-2,3-dihydro-1H-2I6-benzo[c]isothiazol-5-yl)-pyridin-4-yl]-1,4,9-triaza-spiro[5.5] undecan-5-one], the microsomal CLint at 0.8 μM in series [1] lay in the range of 50 to 100 µL/min/mg. This molecule registered an IC50 with Wnt pathway of 150 nM.
For `CN1c2ccc(-c3cnc(N)c(C(F)(F)F)c3N3CCC4(CCNC4=O)CC3)cc2CS1(=O)=O` [Compound 53, 8-[2-Amino-5-(1-methyl-2,2-dioxo-2,3-dihydro-1H-2I6-benzo[c]isothiazol-5-yl)-3-trifluoro-methyl-pyridin-4-yl]-2,8-diaza-spiro[4.5] decan-1-one], the microsomal CLint at 0.8 μM in series [1] was 50 to 100 µL/min/mg. This molecule gave a half-inhibitory concentration (IC50) in the series with Wnt pathway of 8.29 nM.
The matching figures for `CC(C)n1cc(-c2ccc(-c3cnc(N)c(Cl)c3N3CCC4(CC3)CNC(=O)O4)cc2)cn1` [Compound 55, 8-{2-Amino-3-chloro-5-[4-(1-isopropyl-1H-pyrazol-4-yl)-phenyl]-pyridin-4-yl}-1-oxa-3,8-diaza-spiro[4.5] decan-2-one]: 10 to 50 µL/min/mg and 170 nM.
Take `Cn1cc(-c2ccc(-c3cnc(N)c(Cl)c3N3CCC4(CCNC4=O)CC3)cc2)cn1` [Compound 16, 8-(2-Amino-3-chloro-5-(4-(1-methyl-1H-pyrazol-4-yl)phenyl)pyridin-4-yl)-2,8-diazaspiro[4.5]decan-1-one]: the microsomal CLint at 0.8 μM in series [1] was 100 to 150 µL/min/mg. In the series on Wnt pathway, the IC50 turned out to be 25 nM.
Taken in the same sequence, the figures for `CN1c2ccc(-c3cnc(N)c(Cl)c3N3CC[C@H](C#N)[C@@H](O)C3)cc2CS1(=O)=O` [Compound 65, (3R,4R)-2′-Amino-3′-chloro-3-hydroxy-5′-(1-methyl-2,2-dioxo-2,3-dihydro-1H-2I6-benzo[c]isothiazol-5-yl)-3,4,5,6-tetrahydro-2H-[1,4′] bipyridinyl-4-carbonitrile] were 10 to 50 µL/min/mg and 14 nM.
Turning to `Nc1ncc(-c2ccc3c(c2)CCC(=O)N3)c(N2CCC3(CC2)CC(=O)NC3=O)c1Cl` [Compound 13, 8-[2-Amino-3-chloro-5-(2-oxo-1,2,3,4-tetrahydro-quinolin-6-yl)-pyridin-4-yl]-2,8-diaza-spiro[4.5] decane-1,3-dione], the intrinsic metabolic clearance (microsomal CLint) at 0.8 μM in series [1] is below 10 µL/min/mg. In the series with Wnt pathway, this molecule displayed an IC50 of 14 nM.
As to `CN1CCN(c2ccc(-c3cnc(N)c(Cl)c3N3CCC(C#N)CC3)cc2)CC1` [Compound 30, 1-(2-Amino-3-chloro-5-(4-(4-methylpiperazin-1-yl)phenyl)pyridin-4-yl)piperidine-4-carbonitrile], the microsomal CLint at 0.8 μM in series [1] was in the range of 10 to 50 µL/min/mg. In the series on Wnt pathway, half-maximal inhibition (IC50) required 12 nM.
Taken in the same sequence, the figures for `Cn1cc(-c2ccc(-c3cnc(N)c(Cl)c3N3CCC4(CC3)CNC(=O)O4)cc2)cn1` [Compound 10, 8-{2-Amino-3-chloro-5-[4-(1-methyl-1H-pyrazol-4-yl)-phenyl]-pyridin-4-yl}-1-oxa-3,8-diaza-spiro[4.5] decan-2-one] were 10 to 50 µL/min/mg and 36 nM.
Regarding `CN1c2ccc(-c3cnc(N)c(Cl)c3N3CC[C@H](C#N)[C@@H](O)C3)cc2CS1(=O)=O` (racemic) [Compound 57, Racemic trans-2′-amino-3′-chloro-3-hydroxy-5′-(1-methyl-2,2-dioxo-2,3-dihydro-1H-2l6-benzo[c]isothiazol-5-yl)-3,4,5,6-tetrahydro-2H-[1,4′]bipyridinyl-4-carbonitrile], the microsomal CLint at 0.8 μM in series [1] is 10 to 50 µL/min/mg. This molecule yielded an IC50 with Wnt pathway of 28.6 nM.
The matching figures for `Cn1ncc2cc(-c3cnc(N)c(Cl)c3N3CCC4(CC3)NC(=O)NC4=O)ccc21` [Compound 8, 8-[2-Amino-3-chloro-5-(1-methyl-1H-indazol-5-yl)-pyridin-4-yl]-1,3,8-triaza-spiro[4.5] decane-2,4-dione]: below 10 µL/min/mg and 29 nM.
As for `CN1c2ccc(-c3cnc(N)c(F)c3N3CCC4(CC3)CNC(=O)O4)cc2CS1(=O)=O` [Compound 60, 8-[2-Amino-3-fluoro-5-(1-methyl-2,2-dioxo-2,3-dihydro-1H-2l6-benzo[c]isothiazol-5-yl)-pyridin-4-yl]-1-oxa-3,8-diaza-spiro[4.5]decan-2-one], the microsomal CLint at 0.8 μM in series [1] is below 10 µL/min/mg. In the series on Wnt pathway, this molecule showed an IC50 of 103 nM.
As to `Nc1ncc(-c2ccc(N3CCOCC3)cc2)c(N2CCC3(CCNC3=O)CC2)c1Cl` [Compound 18, 8-[2-Amino-3-chloro-5-(4-morpholin-4-yl-phenyl)-pyridin-4-yl]-2,8-diaza-spiro[4.5] decan-1-one], the microsomal CLint at 0.8 μM in series [1] lay within 50 to 100 µL/min/mg. In the series on Wnt pathway, this molecule returned an IC50 of 120 nM.
Taken in the same sequence, the figures for `Nc1ncc(-c2ccccc2)c(N2CCC3(CCNC3=O)CC2)c1Cl` [Compound 1, 8-(2-Amino-3-chloro-5-phenyl-pyridin-4-yl)-2,8-diaza-spiro[4.5]decan-1-one] were 10 to 50 µL/min/mg and 670 nM.
